Structures can show the parent of a compound that is named as a salt.
Each compound was assayed against T1, H^+/K^+-ATPase (Sus scrofa, UniProt P19156) (assay: Inhibitory effects on proton pump (H^+/K^+-ATPase) activity, hog gastric vesicles). Settings: K^+ stimulated H^+/K^+-ATPase activity, hog gastric vesicle, Pi measured at 620 nm.
T1 construct: used as an enzyme source of the in vitro enzyme reaction assay of proton pump; from tissue; host or cells: hog gastric fundic mucosa (membrane vesicles, lyophilized)
T1 sequence (P19156 2-1034 limits assumed): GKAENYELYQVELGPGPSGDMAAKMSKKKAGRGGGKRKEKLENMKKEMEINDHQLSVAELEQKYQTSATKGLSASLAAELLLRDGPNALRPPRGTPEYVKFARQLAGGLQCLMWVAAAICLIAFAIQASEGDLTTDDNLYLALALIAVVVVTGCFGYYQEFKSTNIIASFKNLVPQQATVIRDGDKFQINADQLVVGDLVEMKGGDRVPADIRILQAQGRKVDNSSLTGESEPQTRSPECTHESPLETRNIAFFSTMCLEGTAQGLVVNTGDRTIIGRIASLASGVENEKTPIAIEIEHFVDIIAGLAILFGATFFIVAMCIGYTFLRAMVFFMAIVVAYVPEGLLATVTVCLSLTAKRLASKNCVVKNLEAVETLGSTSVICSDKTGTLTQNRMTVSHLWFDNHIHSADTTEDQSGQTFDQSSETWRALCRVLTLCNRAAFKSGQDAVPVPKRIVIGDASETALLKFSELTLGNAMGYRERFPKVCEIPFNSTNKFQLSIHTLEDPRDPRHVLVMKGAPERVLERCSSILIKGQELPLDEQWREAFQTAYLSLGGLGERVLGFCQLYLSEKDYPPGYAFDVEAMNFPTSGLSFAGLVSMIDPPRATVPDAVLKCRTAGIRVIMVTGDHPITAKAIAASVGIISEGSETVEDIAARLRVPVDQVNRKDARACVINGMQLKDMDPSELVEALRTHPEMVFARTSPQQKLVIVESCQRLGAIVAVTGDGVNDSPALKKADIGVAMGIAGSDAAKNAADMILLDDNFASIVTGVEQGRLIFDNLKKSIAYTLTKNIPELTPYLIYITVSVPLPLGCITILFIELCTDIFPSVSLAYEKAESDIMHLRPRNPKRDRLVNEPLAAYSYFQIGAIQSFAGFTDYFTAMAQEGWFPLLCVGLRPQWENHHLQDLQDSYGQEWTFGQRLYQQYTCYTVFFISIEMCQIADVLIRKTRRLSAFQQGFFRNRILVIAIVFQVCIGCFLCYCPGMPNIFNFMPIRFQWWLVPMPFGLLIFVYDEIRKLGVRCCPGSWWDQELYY
T1 sequence (P18434 whole entry partner): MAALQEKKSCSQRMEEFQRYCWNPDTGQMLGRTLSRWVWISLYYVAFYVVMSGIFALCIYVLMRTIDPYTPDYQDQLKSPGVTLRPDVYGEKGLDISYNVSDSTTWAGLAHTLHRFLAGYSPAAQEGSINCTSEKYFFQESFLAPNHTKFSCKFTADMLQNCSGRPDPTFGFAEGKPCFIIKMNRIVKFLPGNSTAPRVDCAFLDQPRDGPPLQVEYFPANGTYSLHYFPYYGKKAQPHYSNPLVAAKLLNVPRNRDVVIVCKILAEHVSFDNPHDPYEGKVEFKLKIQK
Format: biochemical
Procedure: Preparation of Gastric Proton Pump Vesicles
The hog fundic regions containing parietal and peptic cells were scraped with slide-glass. The collected cells were suspended in 10 ml of 0.25M sucrose buffer and homogenized using a tight-fitting Teflon-glass homogenizer. The homogenate was centrifuged for 35 min at 8,000 rpm and the pellet was discarded. The supernatant was further centrifuged for 75 min at 25,000 rpm. The resulting pellets were re-suspended in the sucrose buffer (10 ml), and then the suspension was laid onto discontinuous density gradients consisting of 0.25M sucrose buffer and isolation medium containing 9% Ficoll (w/w). After being centrifuged for 3 hours and 15 minutes at 100,000×g, the material at the interface of sucrose buffer and Ficoll solution was collected and then centrifuged for 40 minutes at 100,000×g. The resulting pellets were re-suspended in 1 ml of 5 mM Hepes/Tris buffer (pH 6.1). This material was lyophilized and stored at −70° C. and used as an enzyme source of the in vitro enzyme reaction assay of proton pump.
1-2. Measurement of Inhibitory Effects on Proton Pump (H+/K+-ATPase) activity
The inhibitory effects of the compounds of the present invention against proton pump activity were evaluated in 96-well plate. In this assay, the K^+ specific H^+/K^+-ATPase activity was calculated based on the difference between the activity of H^+/K^+-ATPase activity with K^+ and without K^+ ion. In 96-well plate, 1% dimethylsulfoxide (DMSO) in buffer was added to negative and positive control groups and the diluted compounds of the present invention in buffer were added to test group. All assays were performed in 100 μl reaction volume at room temperature, and the hog gastric vesicle was kept in ice before use. At the beginning of the reaction, 10 μl of reaction buffer containing 1% DMSO was added to the negative and positive control groups and to each concentration of compounds in the test group. Then lyophilized vesicle in 5 mM Pipes/Tris buffer (pH 6.1) was pre-incubated in the presence of various concentrations of test compounds. After a 5 minute incubation, negative and positive buffers were respectively added to the previous reaction mixture. As the substrate, ATP was added to the reaction buffer, and incubated for 30 minutes at 37° C. Enzymatic activity was stopped by the addition of colorimetric reagent (2× malachite green, 1× ammonium molybdate, 1× polyvinyl alcohol, 2× H2O) and the amount of mono phosphate (Pi) in the reaction was measured at 620 nm using the micro plate reader (Genios Pro, TECAN). The difference between the Pi production with K^+ and without K^+ is taken as K^+ stimulated H^+/K^+-ATPase activity.
`COCn1c(C)c(C)c2nccc(OCc3ccc(Cl)cc3Cl)c21` [Example 134, 7-(2,4-dichlorobenzyloxy)-1-methoxymethyl-2,3-dimethyl-1H-pyrrolo[3,2-b]pyridine hydrochloride] gave an IC50 of 540 nM. For `CC(C)=CCn1c(C)c(C)c2nccc(OCc3ccc(Cl)cc3Cl)c21` [Example 135, 7-(2,4-dichlorobenzyloxy)-2,3-dimethyl-1-(3-methylbut-2-enyl)-1H-pyrrolo[3,2-b]pyridine hydrochloride], the IC50 was 150 nM. Work on `Cc1c(C)n(Cc2ccccc2)c2c(OCc3ccc(Cl)cc3Cl)ccnc12` [Example 136, 1-benzyl-7-(2,4-dichlorobenzyloxy)-2,3-dimethyl-1H-pyrrolo[3,2-b]pyridine hydrochloride] yielded an IC50 of 50 nM. Work on `CCn1c(C)c(C)c2nccc(OCc3ccc(Cl)cc3Cl)c21` [Example 137, 7-(2,4-dichlorobenzyloxy)-1-ethyl-2,3-dimethyl-1H-pyrrolo[3,2-b]pyridine hydrochloride] yielded an IC50 of 60 nM. In the case of `COC(=O)Cn1c(C)c(C)c2nccc(OCc3ccc(Cl)cc3Cl)c21` [Example 138, 7-(2,4-dichlorobenzyloxy)-1-methoxycarbonylmethyl-2,3-dimethyl-1H-pyrrolo[3,2-b]pyridine hydrochloride], the IC50 is reported as 460 nM. In the case of `Cc1c(C)n(Cc2ccc(F)cc2)c2c(OCc3ccc(Cl)cc3Cl)ccnc12` [Example 140, 7-(2,4-dichlorobenzyloxy)-1-(4-fluorobenzyl)-2,3-dimethyl-1H-pyrrolo[3,2-b]pyridine hydrochloride], the IC50 is reported as 80 nM. `COc1cccc(Cn2c(C)c(C)c3nccc(OCc4ccc(Cl)cc4Cl)c32)c1` [Example 141, 7-(2,4-dichlorobenzyloxy)-1-(3-methoxybenzyl)-2,3-dimethyl-1H-pyrrolo[3,2-b]pyridine hydrochloride] gave an IC50 of 90 nM. For `Cc1cccc(COc2ccnc3c(C)c(C)n(Cc4ccccc4)c23)c1` [Example 144, 1-benzyl-2,3-dimethyl-7-(3-methylbenzyloxy)-1H-pyrrolo[3,2-b]pyridine hydrochloride], the IC50 was 240 nM. In the case of `CCn1c(C)c(C)c2nccc(OCc3cccc(C)c3)c21` [Example 145, 1-ethyl-2,3-dimethyl-7-(3-methylbenzyloxy)-1H-pyrrolo[3,2-b]pyridine hydrochloride], the IC50 is reported as 530 nM. Compound `Cc1cccc(COc2ccnc3c(C)c(C)n(Cc4cccc(F)c4)c23)c1` [Example 146, 1-(3-fluorobenzyl)-2,3-dimethyl-7-(3-methylbenzyloxy)-1H-pyrrolo[3,2-b]pyridine hydrochloride] has an IC50 of 3150 nM. Work on `Cc1cccc(COc2ccnc3c(C)c(C)n(Cc4ccc(Cl)cc4)c23)c1` [Example 147, 1-(4-chlorobenzyl)-2,3-dimethyl-7-(3-methylbenzyloxy)-1H-pyrrolo[3,2-b]pyridine hydrochloride] yielded an IC50 of 3450 nM. For `CCCn1c(C)c(C)c2nccc(OCc3cccc(C)c3)c21` [Example 153, 2,3-dimethyl-7-(3-methylbenzyloxy)-1-propyl-1H-pyrrolo[3,2-b]pyridine hydrochloride], the IC50 was 1030 nM. `Cc1cccc(COc2ccnc3c(C)c(C)n(CC4CC4)c23)c1` [Example 154, 1-cyclopropylmethyl-2,3-dimethyl-7-(3-methylbenzyloxy)-1H-pyrrolo[3,2-b]pyridine hydrochloride] gave an IC50 of 240 nM. `C=CCn1c(C)c(C)c2nccc(OCc3cccc(C)c3)c21` [Example 155, 1-allyl-2,3-dimethyl-7-(3-methylbenzyloxy)-1H-pyrrolo[3,2-b]pyridine hydrochloride] gave an IC50 of 570 nM. `Cc1ccc(Cn2c(C)c(C)c3nccc(OCc4cccc(C)c4)c32)cc1` [Example 156, 2,3-dimethyl-1-(4-methylbenzyl)-7-(3-methylbenzyloxy)-1H-pyrrolo[3,2-b]pyridine hydrochloride] was tested, and the IC50 was 610 nM. Work on `COCCn1c(C)c(C)c2nccc(OCc3cccc(C)c3)c21` [Example 157, 1-(2-methoxyethyl)-2,3-dimethyl-7-(3-methylbenzyloxy)-1H-pyrrolo[3,2-b]pyridine hydrochloride] yielded an IC50 of 570 nM. `Cc1cccc(COc2ccnc3c(C)c(C)n(Cc4ccc(F)cc4)c23)c1` [Example 158, 1-(4-fluorobenzyl)-2,3-dimethyl-7-(3-methylbenzyloxy)-1H-pyrrolo[3,2-b]pyridine hydrochloride] gave an IC50 of 320 nM. `COc1cccc(Cn2c(C)c(C)c3nccc(OCc4cccc(C)c4)c32)c1` [Example 159, 1-(3-methoxybenzyl)-2,3-dimethyl-7-(3-methylbenzyloxy)-1H-pyrrolo[3,2-b]pyridine hydrochloride] gave an IC50 of 880 nM. `CCOc1ccccc1COc1ccnc2c(C)c(C)n(CC3CC3)c12` [Example 161, 1-cyclopropylmethyl-7-(2-ethoxybenzyloxy)-2,3-dimethyl-1H-pyrrolo[3,2-b]pyridine hydrochloride] was tested, and the IC50 was 580 nM. With `CCOc1ccccc1COc1ccnc2c(C)c(C)n(CCOC)c12` [Example 162, 7-(2-ethoxybenzyloxy)-1-(2-methoxyethyl)-2,3-dimethyl-1H-pyrrolo[3,2-b]pyridine hydrochloride] the IC50 was 1150 nM. With `CCOc1ccccc1COc1ccnc2c(C)c(C)n(CC3CCC3)c12` [Example 163, 1-cyclobutylmethyl-7-(2-ethoxybenzyloxy)-2,3-dimethyl-1H-pyrrolo[3,2-b]pyridine hydrochloride] the IC50 was 1010 nM. `C=CCn1c(C)c(C)c2nccc(OCc3ccccc3OCC)c21` [Example 164, 1-allyl-7-(2-ethoxybenzyloxy)-2,3-dimethyl-1H-pyrrolo[3,2-b]pyridine hydrochloride] showed an IC50 of 3000 nM. Work on `CCOc1ccccc1COc1ccnc2c(C)c(C)n(Cc3cccc(OC)c3)c12` [Example 177, 7-(2-ethoxybenzyloxy)-1-(3-methoxybenzyl)-2,3-dimethyl-1H-pyrrolo[3,2-b]pyridine hydrochloride] yielded an IC50 of 290 nM. `CCOc1ccccc1COc1ccnc2c(C)c(C)n(Cc3cccc(F)c3)c12` [Example 178, 1-(3-fluorobenzyl)-7-(2-ethoxybenzyloxy)-2,3-dimethyl-1H-pyrrolo[3,2-b]pyridine hydrochloride] gave an IC50 of 840 nM. With `Cc1c(C)n(CC2CCC2)c2c(OCc3cc(F)cc(F)c3)ccnc12` [Example 179, 1-cyclobutylmethyl-7-(3,5-difluorobenzyloxy)-2,3-dimethyl-1H-pyrrolo[3,2-b]pyridine hydrochloride] the IC50 was 570 nM. For `Cc1c(C)n(CC2CC2)c2c(OCc3cc(F)cc(F)c3)ccnc12` [Example 180, 1-cyclopropylmethyl-7-(3,5-difluorobenzyloxy)-2,3-dimethyl-1H-pyrrolo[3,2-b]pyridine hydrochloride], the IC50 was 830 nM. Compound `COCCn1c(C)c(C)c2nccc(OCc3cc(F)cc(F)c3)c21` [Example 181, 7-(3,5-difluorobenzyloxy)-1-(2-methoxyethyl)-2,3-dimethyl-1H-pyrrolo[3,2-b]pyridine hydrochloride] has an IC50 of 4710 nM. Compound `CCCn1c(C)c(C)c2nccc(OCc3cc(F)cc(F)c3)c21` [Example 182, 7-(3,5-difluorobenzyloxy)-2,3-dimethyl-1-propyl-1H-pyrrolo[3,2-b]pyridine hydrochloride] has an IC50 of 3880 nM. Compound `Cc1c(C)n(Cc2ccc(Cl)cc2)c2c(OCc3cc(F)cc(F)c3)ccnc12` [Example 183, 1-(4-chlorobenzyl)-7-(3,5-difluorobenzyloxy)-2,3-dimethyl-1H-pyrrolo[3,2-b]pyridine hydrochloride] has an IC50 of 1210 nM.

From patent US7642269B2, “Pyrrolo[3,2-B]pyridine derivatives and processes for the preparation thereof” (Yuhan Corporation, priority 2005, dated 2010)
